Residues, ends and D or L forms follow the SMILES beside them. *: point of attachment. Cbz = O=C(OCc1ccccc1)*
How the values were obtained:
[1] = test system: CAR construct with SynZIP17 fused to its C-terminus; experiment: Degradation of CAR-SZ17 fusion in Jurkat cells; assay type: cell-based; details: degron directly fused to the CAR
Protocol: Next, the soluble STUD was used to target a membrane protein for degradation. The ability of the STUD to degrade a CAR in Jurkat cells was tested by generating a CAR construct with SynZIP17 fused to its C-terminus. However, while these STUDs worked to some extent, none of them were able to completely knockdown CAR expression (see FIG. 8).
Membrane targeting STUD: Membrane targeting cells were introduced by lentiviral transduction of two plasmids. […] Cells were then analyzed by flow cytometry. […] CAR and SynNotch expression was measured by antibody staining for a peptide tag fused to the extracellular domain of the CAR/SynNotch.

CD19BBz CAR = experiment: MLN4924 rescue of STUD knockdown of CD19BBz CAR expression in CD8+ primary T cells; assay type: cell-based, human; details: 1 μM MLN4924, 5 hours, 37 C
Protocol: Engineered CD8+T cells expressing were cocultured with NALM6 target cells and measured activation of the CAR by quantifying target cell lysis and expression of the T cell activation marker CD25.
(§1) Inhibitor Assays: 100,000 cells were plated in a 96 well round bottom plate with either 5 μM MG-132 (Sigma-Aldrich #M7449-200UL), 1 μM MLN4924(Active Biochem #A-1139), 100 nM Bafilomycin A1(Enzo Life Sciences #BML-CM110-0100), or DMSO vehicle control and incubated at 37 C for 5 hours. After incubation, cells were pelleted by centrifugation at 400×g for 4 minutes. Supernatant was then removed and cells were washed once with 200 μL PBS. Cells were pelleted again (400×g for 4 minutes) and resuspended in flow buffer (PBS+2% FBS) for assay by flow cytometry.

[2] = test system: STUD degradation of GFP in Jurkat T cells; experiment: Inhibitor assay: rescue of GFP fluorescence in Jurkat T cells expressing STUD and GFP target; assay type: cell-based; details: 5 hours
Protocol: Using the 2 plasmid system as described above, we lentivirally transduce Jurkat T cells. 72 hours after removal of lentivirus, we treat these Jurkat T cells and an untransduced control cell line with either 5 μM of the proteasomal inhibitor MG-132, 1 μM of the cullin ring ligase inhibitor MLN4924, 100 nM of the lysosomal inhibitor Bafilomycin Al, or DMSO vehicle control and incubate at 37 C for 5 hours. Using flow cytometry to measure GFP fluorescence following treatment, we observe that GFP fluorescence can indeed be rescued with MG-132 and MLN4924 when cells express both a functional STUD and a GFP target relative to DMSO vehicle control.
as §1

NALM6 target cells = experiment: MLN dose response: ON switch CAR lysis of NALM6 target cells; assay type: cell-based, human; details: MLN4924 1 μM to 0.015625 μM, 72 hours, CD8+ T cells with antiCD19BBz CAR-SynZip and memSTUD
Protocol: CD8+primary human T cells were engineered with an antiCD19BBz CAR fused to a SynZip and a memSTUD that binds the SynZip using the same plasmids outlined in FIG. 14A by lentiviral transduction. As a control, we also lentivirally transduce CD8+primary human T cells with an antiCD19BBz and a SynZip memSTUD which cannot bind the CAR. These engineered cells and an untransduced control were cocultured with NALM6 target cells for 72 hours at 37 C in the presence of MLN4924 ranging from 1 μM to 0.015625 μM and a DMSO vehicle control. After coculture, target cell lysis was assayed by flow cytometry. Specific target cell lysis of each cell line relative to NALM6 cells cultured alone in the same conditions was then calculated.
100 μL containing media containing a 2×concentration of MLN4924 was added to each well of seeded cells. Cells with MLN4924 were incubated at 37 C for 72 hours. DMSO vehicle at the same concentration as the max MLN4924 concentration was added to cells as a control.

GFP-SZ17 [GFP: P42212] = experiment: cell-based or functional assay

Molecule: RRRG [Bonger degron]
- reduction of CAR expression [1]: over 90%

Molecule: NS(=O)(=O)OC[C@@H]1C[C@@H](n2ccc3c(N[C@H]4CCc5ccccc54)ncnc32)C[C@@H]1O [MLN4924]
- CAR expression after cullin inhibitor (CD19BBz CAR): rescue
- GFP fluorescence relative to DMSO vehicle control ([2]; 1 μM MLN4924, 37 C, cells with functional STUD and GFP target): rescued
- specific target cell lysis (NALM6 target cells): dose dependent

Molecule: CC(C)C[C@@H](C=O)NC(=O)[C@H](CC(C)C)NC(=O)[C@H](CC(C)C)NC(=O)OCc1ccccc1 [MG-132] (Cbz-Leu-Leu-Leu-aldehyde)
- GFP fluorescence relative to DMSO vehicle control ([2]; 5 μM MG-132, 37 C, cells with functional STUD and GFP target): rescued

Molecule: SynZIP18(K->R)-5xGS-RRRG (designed binder)
- fold change of median normalized GFP fluorescence, flow cytometry, Jurkat T cells (STUD-induced degradation) (GFP-SZ17 [GFP: P42212]): 42 fold

Molecule: bafilomycin
- GFP fluorescence relative to DMSO vehicle control ([2]; 100 nM Bafilomycin, 37 C): No changes

— patent US20230302133A1, “TARGETED PROTEIN DEGRADATION IN THERAPEUTIC CELLS” (The Regents of the University of California, priority 2020, published 2023)
